From patent publication US10100313B2, “Use of Mcoln-1 modulators to regulate cell migration” (INSTITUT CURIE, priority 2014, dated 2018)
“Also recorded” adds a separate entry of the source.

Key:
Assay type in all cases: cell-based, mouse
dendritic cells [1] = assay: Migration assay in micro-channels
Procedure: (§1) Mouse bone-marrow cells were cultured during 10-12 days in medium supplemented with fetal calf serum and granulocyte-macrophage colony stimulating factor-containing supernatant obtained from transfected J558 cells, as previously described (Faure-Andre et al, 2008, Science, 322, 1705-10). For migration or mapping assays (see below), cells at day 10-12 were activated with 100 ng/ml of LPS (mature cells, LPS DCs), for 30 min, then rinsed 3 times with complete media and put into the channels. Counterpart immature cells for these experiments are treated in the same condition, but in absence of LPS.
Micro-channels were prepared as previously described (Faure-Andre et al, 2008, Science, 322, 1705-10; Heuze et al., 2011, Methods Mol Biol., 769, 415-434). They were incubated with 10 μg/ml fibronectin alone for 1 h and washed with PBS.
For migration assay, cells were loaded in micro-channels (section 5×5 μm) and imaged at least for 16 hours on an epifluorescence video-microscope Nikon TiE microscope equipped with a cooled CCD camera (HQ2, Photometrics) with a 10× objective, one transmission phase image taken every 2 minutes. Kymograph extraction and instantaneous velocity analysis were performed using a homemade program as described previously (Faure-Andre et al, 2008, Science, 322, 1705-10).

dendritic cells [2] = assay: Mapping assay of polymerized actin in migrating Lifeact dendritic cells; conditions: immature DCs
Procedure: as §1
Lifeact dendritic cells (nucleofected or not) were incubated for 30 min in […] Hoechst-containing medium, washed 3 times and 10^5 cells per well were loaded and incubated from 4 h to overnight to allow their entry into micro-channels (section was 8×5 μm). After entry, cells were imaged at least for 16 hours on an epifluorescence video-microscope Nikon TiE microscope equipped with a cooled CCD camera (HQ2, Photometrics) with a 20× objective. Images were acquired every 3 minutes. […] Furthermore for each cell, spatial coordinates of the nuclei were measured and ratio between the mean actin density at the front and at the back of the nucleus was computed. […]

dendritic cells [3] = assay: Flow cytometry analysis of CD86 levels (DC activation/maturation); conditions: immature and LPS-matured cells, 5 or 10 μM
Procedure: The following reagents were used for imaging experiments: WGA AlexaFluor-647 and Hoechst (both from Life Technologies). Micro-channels were coated with Fibronectin (Sigma). Cell activation was performed with LPS (Sigma). For flow cytometry the following antibodies were used: anti-CD86 (GL1 clone, 553692) and a Rat IgG2a,κ isotype control (553930) from BD Biosciences.
as §1
Cells were resuspended in staining buffer (PBS BSA 2%) and stained 30 min at 4° C. with the indicated antibodies. Cells were then washed 3 times and resuspended in staining buffer. All Facs experiments were carried on an Accuri flow cytometer (BD Biosciences).

MLSA1 was tested, and the cell velocity (dendritic cells [1]; immature DCs) was “increases”, the persistence (dendritic cells [1]; immature DCs) was “increases” and the cell velocity (dendritic cells [1]; mature cells (LPS DCs)) was “does not further increase”. The persistence (dendritic cells [1]; mature cells (LPS DCs)) was “does not further increase”, the “actin polymerization at the cell center/cell rear” value (dendritic cells [2]) was “enriched at their rear; also recorded: partially induces” and the “fraction of time spent by DCs with actin at their front” value (dendritic cells [2]; compared to immature control DCs) was “decreased”. For the same substance, the “CD86 levels (cell activation / LPS-induced maturation)” value (dendritic cells [3]) was “No effect; also recorded: does not activate immature cells, nor prevent the LPS-induced maturation”.
